{
  "source": "patent US9718821B2",
  "about": "“Pyridopyrimidinone inhibitors of kinases” (AbbVie Inc., priority 2012, dated 2017)",
  "data": [
    {"target": "T1, GST-tagged-Wee1 kinase (Homo sapiens, UniProt P30291)", "T1 construct": "purchased Carnabio 05-177", "T1 sequence (P30291 whole entry)": "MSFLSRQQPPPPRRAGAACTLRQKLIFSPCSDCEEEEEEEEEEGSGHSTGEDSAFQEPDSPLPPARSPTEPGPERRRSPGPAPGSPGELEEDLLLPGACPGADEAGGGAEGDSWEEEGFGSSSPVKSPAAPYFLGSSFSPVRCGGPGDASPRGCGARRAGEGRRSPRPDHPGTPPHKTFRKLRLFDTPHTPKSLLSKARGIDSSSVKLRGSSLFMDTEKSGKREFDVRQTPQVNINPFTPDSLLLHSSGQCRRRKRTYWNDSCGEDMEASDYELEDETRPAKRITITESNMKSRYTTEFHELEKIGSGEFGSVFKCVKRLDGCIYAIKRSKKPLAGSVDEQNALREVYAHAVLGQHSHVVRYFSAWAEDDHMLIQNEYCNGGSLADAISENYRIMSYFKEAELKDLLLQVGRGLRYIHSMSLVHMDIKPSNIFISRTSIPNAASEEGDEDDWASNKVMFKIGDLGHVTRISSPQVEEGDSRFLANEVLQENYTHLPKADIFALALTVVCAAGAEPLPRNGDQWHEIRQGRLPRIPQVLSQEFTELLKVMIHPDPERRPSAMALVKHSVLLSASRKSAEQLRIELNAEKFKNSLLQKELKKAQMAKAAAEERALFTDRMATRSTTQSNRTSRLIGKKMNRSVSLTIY", "test": "Wee1 time-resolved fluorescence equilibrium binding assay (displacement of Oregon Green-labeled ATP-competitive kinase probe)", "conditions": "enzyme binding data; GST-tagged-Wee1 kinase 2 nM, fluorescent probe 300 nM, inhibitor 0.003 to 10 micromolar, 1 hour incubation; read-out: Wee-1 binding (Ki nM)", "experimental": "Wee1 kinase was assayed using a time-resolved fluorescence equilibrium binding assay monitoring displacement of a rapidly reversible Oregon Green-labeled ATP-competitive kinase probe (N-(2-(2-(2-(4-(4-(5-chloro-4-(2-(1-hydroxycyclobutyl)thiazol-5-yl)-1H-pyrrolo[2,3-b]pyridin-2-yl)phenyl)piperazin-1-yl)ethoxy)ethoxy)ethyl)-2′,7′-difluoro-3′,6′-dihydroxy-3-oxo-3H-spiro[isobenzofuran-1,9′-xanthene]-5-carboxamide) by competitive Wee1 inhibitors.\nTable 1 depicts enzyme binding data (Ki)for exemplary compounds.", "units": {"Ki": "nM"}, "values": [
      {"compound": "6-(2,6-dichlorophenyl)-8-methyl-2-(1,2,3,4-tetrahydroisoquinolin-6-ylamino)pyrido[4,3-d]pyrimidin-5(6H)-one [Example 76]", "Ki": 0.5},
      {"compound": "C=Cc1cn(-c2c(Cl)cccc2Cl)c(=O)c2cnc(Nc3ccc4c(c3)CC(N(C)C)C4)nc12", "note": "(centres unmarked) [Example 49, 6-(2,6-dichlorophenyl)-2-{[2-(dimethylamino)-2,3-dihydro-1H-inden-5-yl]amino}-8-ethenylpyrido[4,3-d]pyrimidin-5(6H)-one]", "Ki": 0.3},
      {"compound": "C=Cc1cn(-c2c(Cl)cccc2Cl)c(=O)c2cnc(Nc3ccc(N4CCC(N(C)C)CC4)cc3)nc12", "note": "[Example 50, 6-(2,6-dichlorophenyl)-2-({4-[4-(dimethylamino)piperidin-1-yl]phenyl}amino)-8-ethenylpyrido[4,3-d]pyrimidin-5(6H)-one]", "Ki": 0.5},
      {"compound": "C=Cc1cn(-c2c(Cl)cccc2Cl)c(=O)c2cnc(Nc3ccc4c(c3)CNCC43CC3)nc12", "note": "[Example 51, 6-(2,6-dichlorophenyl)-2-(2′,3′-dihydro-1′H-spiro[cyclopropane-1,4′-isoquinolin]-7′-ylamino)-8-ethenylpyrido[4,3-d]pyrimidin-5(6H)-one]", "Ki": 0.4},
      {"compound": "C=Cc1cn(-c2c(Cl)cccc2Cl)c(=O)c2cnc(Nc3ccc(N4CC5CNCC5C4)cc3)nc12", "note": "(centres unmarked) [Example 52, 6-(2,6-dichlorophenyl)-8-ethenyl-2-{[4-(hexahydropyrrolo[3,4-c]pyrrol-2(1H)-yl)phenyl]amino}pyrido[4,3-d]pyrimidin-5(6H)-one]", "Ki": 1.8},
      {"compound": "CN1Cc2cc(Nc3ncc4c(=O)n(-c5c(Cl)cccc5Cl)cc(CO)c4n3)ccc2C2(CC2)C1", "note": "[Example 53, 6-(2,6-dichlorophenyl)-8-(hydroxymethyl)-2-[(2′-methyl-2′,3′-dihydro-1′H-spiro[cyclopropane-1,4′-isoquinolin]-7′-yl)amino]pyrido[4,3-d]pyrimidin-5(6H)-one]", "Ki": 0.3},
      {"compound": "CN(C)C1Cc2ccc(Nc3ncc4c(=O)n(-c5c(Cl)cccc5Cl)cc(CO)c4n3)cc2C1", "note": "(centres unmarked) [Example 54, 6-(2,6-dichlorophenyl)-2-{[2-(dimethylamino)-2,3-dihydro-1H-inden-5-yl]amino}-8-(hydroxymethyl)pyrido[4,3-d]pyrimidin-5(6H)-one]", "Ki": 0.4},
      {"compound": "CN(C)C1CCN(c2ccc(Nc3ncc4c(=O)n(-c5c(Cl)cccc5Cl)cc(CO)c4n3)cc2)CC1", "note": "[Example 55, 6-(2,6-dichlorophenyl)-2-({4-[4-(dimethylamino)piperidin-1-yl]phenyl}amino)-8-(hydroxymethyl)pyrido[4,3-d]pyrimidin-5(6H)-one]", "Ki": 0.6},
      {"compound": "C=Cc1cn(-c2c(Cl)cccc2Cl)c(=O)c2cnc(Nc3ccc4c(c3)CNCC4(C)C)nc12", "note": "[Example 56, 6-(2,6-dichlorophenyl)-2-[(4,4-dimethyl-1,2,3,4-tetrahydroisoquinolin-7-yl)amino]-8-ethenylpyrido[4,3-d]pyrimidin-5(6H)-one]", "Ki": 0.5},
      {"compound": "O=c1c2cnc(Nc3ccc4c(c3)CNCC43CC3)nc2c(CO)cn1-c1c(Cl)cccc1Cl", "note": "[Example 57, 6-(2,6-dichlorophenyl)-2-(2′,3′-dihydro-1′H-spiro[cyclopropane-1,4′-isoquinolin]-7′-ylamino)-8-(hydroxymethyl)pyrido[4,3-d]pyrimidin-5(6H)-one]", "Ki": 0.1},
      {"compound": "CC1(C)CNCc2cc(Nc3ncc4c(=O)n(-c5c(Cl)cccc5Cl)cc(CO)c4n3)ccc21", "note": "[Example 58, 6-(2,6-dichlorophenyl)-2-[(4,4-dimethyl-1,2,3,4-tetrahydroisoquinolin-7-yl)amino]-8-(hydroxymethyl)pyrido[4,3-d]pyrimidin-5(6H)-one]", "Ki": 0.1},
      {"compound": "C=Cc1cn(-c2c(Cl)cccc2Cl)c(=O)c2cnc(Nc3ccc4c(c3)CCNC4)nc12", "note": "[Example 59, 6-(2,6-dichlorophenyl)-8-ethenyl-2-(1,2,3,4-tetrahydroisoquinolin-6-ylamino)pyrido[4,3-d]pyrimidin-5(6H)-one]", "Ki": 0.1},
      {"compound": "C=Cc1cn(-c2c(F)cccc2Cl)c(=O)c2cnc(Nc3ccc(N4CCC(N(C)C)CC4)cc3)nc12", "note": "[Example 60, 6-(2-chloro-6-fluorophenyl)-2-({4-[4-(dimethylamino)piperidin-1-yl]phenyl}amino)-8-ethenylpyrido[4,3-d]pyrimidin-5(6H)-one]", "Ki": 0.5},
      {"compound": "C=Cc1cn(-c2c(F)cccc2Cl)c(=O)c2cnc(Nc3ccc(C4CCN(C)CC4)cc3)nc12", "note": "[Example 61, 6-(2-chloro-6-fluorophenyl)-8-ethenyl-2-{[4-(1-methylpiperidin-4-yl)phenyl]amino}pyrido[4,3-d]pyrimidin-5(6H)-one]", "Ki": 0.3},
      {"compound": "C=Cc1cn(-c2c(F)cccc2Cl)c(=O)c2cnc(Nc3ccc(N4CCN(C)CC4)cc3)nc12", "note": "[Example 62, 6-(2-chloro-6-fluorophenyl)-8-ethenyl-2-{[4-(4-methylpiperazin-1-yl)phenyl]amino}pyrido[4,3-d]pyrimidin-5(6H)-one]", "Ki": 0.3},
      {"compound": "C=Cc1cn(-c2c(F)cccc2Cl)c(=O)c2cnc(Nc3ccc4c(c3)CN(C)CC43CC3)nc12", "note": "[Example 63, 6-(2-chloro-6-fluorophenyl)-8-ethenyl-2-[(2′-methyl-2′,3′-dihydro-1′H-spiro[cyclopropane-1,4′-isoquinolin]-7′-yl)amino]pyrido[4,3-d]pyrimidin-5(6H)-one]", "Ki": 0.9},
      {"compound": "C=Cc1cn(-c2c(F)cccc2Cl)c(=O)c2cnc(Nc3ccc4c(c3)CC(N(C)C)C4)nc12", "note": "(centres unmarked) [Example 64, 6-(2-chloro-6-fluorophenyl)-2-{[2-(dimethylamino)-2,3-dihydro-1H-inden-5-yl]amino}-8-ethenylpyrido[4,3-d]pyrimidin-5(6H)-one]", "Ki": 0.5},
      {"compound": "CNc1ncc2c(=O)n(-c3c(Cl)cccc3Cl)cc(C)c2n1", "note": "[Example 65, 6-(2,6-dichlorophenyl)-8-methyl-2-(methylamino)pyrido[4,3-d]pyrimidin-5(6H)-one]", "Ki": 127},
      {"compound": "Cc1cn(-c2c(F)cccc2Cl)c(=O)c2cnc(Nc3ccc(N4CCN(C)CC4)cc3)nc12", "note": "[Example 66, 6-(2-chloro-6-fluorophenyl)-8-methyl-2-{[4-(4-methylpiperazin-1-yl)phenyl]amino}pyrido[4,3-d]pyrimidin-5(6H)-one]", "Ki": 0.9},
      {"compound": "Cc1cn(-c2c(F)cccc2Cl)c(=O)c2cnc(Nc3ccc4c(c3)CN(C)CC43CC3)nc12", "note": "[Example 67, 6-(2-chloro-6-fluorophenyl)-8-methyl-2-[(2′-methyl-2′,3′-dihydro-1′H-spiro[cyclopropane-1,4′-isoquinolin]-7′-yl)amino]pyrido[4,3-d]pyrimidin-5(6H)-one]", "Ki": 0.8},
      {"compound": "Cc1cn(-c2c(F)cccc2Cl)c(=O)c2cnc(Nc3ccc4c(c3)CC(N(C)C)C4)nc12", "note": "(centres unmarked) [Example 68, 6-(2-chloro-6-fluorophenyl)-2-{[2-(dimethylamino)-2,3-dihydro-1H-inden-5-yl]amino}-8-methylpyrido[4,3-d]pyrimidin-5(6H)-one]", "Ki": 0.9},
      {"compound": "Cc1cn(-c2c(F)cccc2Cl)c(=O)c2cnc(Nc3ccc(N4CCC(N(C)C)CC4)cc3)nc12", "note": "[Example 69, 6-(2-chloro-6-fluorophenyl)-2-({4-[4-(dimethylamino)piperidin-1-yl]phenyl}amino)-8-methylpyrido[4,3-d]pyrimidin-5(6H)-one]", "Ki": 2.4},
      {"compound": "Cc1cn(-c2c(F)cccc2Cl)c(=O)c2cnc(Nc3ccc4c(c3)CN(C)CC4(C)C)nc12", "note": "[Example 70, 6-(2-chloro-6-fluorophenyl)-8-methyl-2-[(2,4,4-trimethyl-1,2,3,4-tetrahydroisoquinolin-7-yl)amino]pyrido[4,3-d]pyrimidin-5(6H)-one]", "Ki": 1.6}
    ]}
  ]
}
